Measurements from article PMC7200681, “The calcitonin-like system is an ancient regulatory system of biomineralization” (Scientific Reports, 2020).
Bridge positions count the residues as written; N and C are the ends.

Legend:
[1] = test system: mussel CALCRIIa; test: Calcium mobilization assay (apoaequorin bioluminescence), dose-response, HEK 293 cells expressing mussel CALCRIIa; format: cell-based, Mytilus galloprovincialis; conditions: calcium mobilization, HEK 293/apoaequorin, 1 μM to 0.01 nM
Source text: The complete sequence of the Mediterranean mussel CALCRIa was amplified using specific primers (Table 1) from cDNA of a tissue mixture (mantle, adductor muscle, gills, gonads) using a proofreading DNA polymerase (iProof BIORAD, Portugal) and cloned into the pGEMT-easy vector (PROMEGA, Spain). The Mediterranean mussel CALCRIIa transcript that was found in the mantle transcriptome was incomplete and lacked the N-terminus (by comparisons with the hard-shelled mussel homologue) and so the remaining sequence (from 1–393 bp) was deduced from the hard-shelled mussel homologue receptor and the receptor was synthesised and supplied by GENESCRIPT (USA). The complete transcripts for mussel CALCRIc, CALCRIIb and CALCRIIc were only found in the hard-shelled mussel mantle transcriptome and homologues were only found in the Mediterranean mussel genome as they were absent from the species mantle transcriptome and so they were also synthesised and supplied by GENESCRIPT (USA) using the hard-shelled mussel receptor sequences as template. The mussel CALCRIb transcript was incomplete and lacked both N and C-terminal regions and it was not possible to obtain the complete transcript either by searching both mussels mantle transcriptomes or the Mediterranean mussel genome and so it was not produced. All synthetized receptors were provided in the pUC57 cloning vector by the company and receptor codon usage was optimized to favour a high level of expression in mammalian cells.
Mammalian cell cultures and transfections followed the methodology described by[89],[90]. Mammalian HEK293 cells (ECACC, UK) were used and they were maintained in complete Dulbecco’s modified Eagle’s medium (DMEM, 4.5 g/l glucose, 110 mg/l sodium pyruvate and L-glutamine, SIGMA-ALDRICH, Spain) supplemented with 10% sterile foetal bovine serum (FBS), 0.1% penicillin: streptomycin antibiotic mix (10,000 U:10 mg/ml, Sigma) and 250 μg /ml sterile filtered 1:100 amphotericin B solution (SIGMA-ALDRICH) in a humid 5% CO2 incubator (HERAEUS, Portugal) at 37 °C. On the day prior to transfection, 2–3 × 10^5 HEK293 cells were seeded on 6 well plates (SARSTEDT, Portugal) and transfected with Fugene HD transfection reagent (2 DNA: 4 Fugene ratio, PROMEGA) following the manufacturer’s protocol. Seventy-two hours after transfection, 800 μg/ml of the antibiotic Geneticin (SIGMA-ALDRICH) was added to the medium to select and isolate stable receptor cell lines. Cell recovery was monitored daily and the medium was changed every two days until no cell death was observed. […]
(§1) HEK293 cells stably expressing five mussel receptors (CALCRIa, CALCRIc, CALCRIIa, CALCRIIb and CALCRIIc) were stimulated with the two mussel peptides and the vertebrate (human and salmon) calcitonins. Receptor activation was assessed in vitro by measuring two intracellular signalling pathways: a) production of cAMP and b) mobilization of calcium (Ca^2+). The cellular response was initially assessed using 10 μM of each peptide. […]
Stable cell lines expressing the mussel receptors were transiently co-transfected with the mitochondrial targeted apo-aequorin protein cloned in pcDNA3.1. Two days after transfection cells were washed, counted and resuspended in 1 ml of DMEM /F12 Ham (without phenol red)/0.1% BSA supplemented with 2 µM coelenterazine (SIGMA-ALDRICH). […] The injector system of the Biotek Synergy 4 microplate reader (USA) was used to inject 50 µl of the cell suspensions into wells containing 50 μl of the diluted peptide in DMEM / F12 Ham / 0.1% BSA. […]

[2] = test system: mussel CALCR-like (CALCRIa, CALCRIc, CALCRIIa, CALCRIIb and CALCRIIc); test: Calcium mobilization, initial single-concentration test on the mussel receptors; format: cell-based; conditions: 10 µM peptide; % of carbachol (100uM) response; single experiment with six replicates (Supplementary Figure 7B)
Description: Mammalian cell cultures and transfections followed the methodology described by[89],[90]. Mammalian HEK293 cells (ECACC, UK) were used and they were maintained in complete Dulbecco’s modified Eagle’s medium (DMEM, 4.5 g/l glucose, 110 mg/l sodium pyruvate and L-glutamine, SIGMA-ALDRICH, Spain) supplemented with 10% sterile foetal bovine serum (FBS), 0.1% penicillin: streptomycin antibiotic mix (10,000 U:10 mg/ml, Sigma) and 250 μg /ml sterile filtered 1:100 amphotericin B solution (SIGMA-ALDRICH) in a humid 5% CO2 incubator (HERAEUS, Portugal) at 37 °C. […] Cell recovery was monitored daily and the medium was changed every two days until no cell death was observed. […]
as §1
Stable cell lines expressing the mussel receptors were transiently co-transfected with the mitochondrial targeted apo-aequorin protein cloned in pcDNA3.1. […] Peptide potency was determined as the total area under the activation curve. Data was calculated as a % of the highest response (100% activation). […]

## H-CTWGGGMSDEMCSTVDIDEIQRSFQVIHDRNSP-NH2 (disulfide 1-12 (inferred)) [CALCIIa, Mediterranean mussel calcitonin-like mature peptide, 33 aa, synthesized with disulphide bond and C-terminal amidation]
[1]
  Activation of mussel CALCRIIa in dose-response analysis (in words): not activated
[2]
  Stimulation of mussel CALCR-like, intracellular calcium (in words): elicited a high response
